According to ChEMBL document CHEMBL1201862, “PubChem BioAssay data set” (2004):
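Protocol summary: plate cells (96-well), add compound at 5 concentrations, incubate 48 h, interpolate endpoints linearly. The concentration for 50% growth inhibition is given as GI50.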 Active and inactive are the calls of the source. Rule as the data show it: active = GI50 up to about 1.1 µM and inactive = higher.

Legend:
Test in all cases: NCI tumour cell line growth inhibition, 48 h
M19-MEL = test system: M19-MEL
DMS-114 = test system: DMS-114
MDA-MB-231 = test system: MDA-MB-231
MDA-N = test system: MDA-N
T47D = test system: T47D
DU-145 = test system: DU-145
BT-549 = test system: BT-549
RXF 631 = test system: RXF 631

Structure (SMILES): COc1ccc(/C=c2\sc3n(c2=O)CCN=3)cc1
- GI50 (M19-MEL): > 100 µM (inactive)

Structure (SMILES): c1ccc(-n2cnnc2-c2nsc3ccccc23)cc1
- GI50 (M19-MEL): > 100 µM (inactive)

Structure (SMILES): CCCN1C(=O)/C(=C(/O)C(=O)OCC)C(c2ccc(OC)c(OC)c2)C1=O (stereo unspecified)
- GI50 (DMS-114): > 100 µM (inactive)
- GI50 (M19-MEL): > 100 µM (inactive)

Structure (SMILES): NCCCN(CCCN)CCN(CCN(CCCN)CCCN)CCN(CCCN)CCCN
- GI50 (MDA-MB-231): > 100 µM (inactive)
- GI50 (MDA-N): > 100 µM (inactive)
- GI50 (T47D): 58.3 µM (inactive)
- GI50 (DU-145): > 100 µM (inactive)

Structure (SMILES): C[C@H]1O[C@@H](O[C@H]2[C@@H](O)C[C@H](O[C@H]3[C@@H](O)C[C@H](O[C@H]4CC[C@@]5(C)[C@H](CC[C@@H]6[C@@H]5CC[C@]5(C)[C@@H](C7=CC(=O)OC7)CC[C@]65O)C4)O[C@@H]3C)O[C@@H]2C)C[C@H](O)[C@@H]1O [DIGITOXIN]
- GI50 (MDA-MB-231): 0.129 µM (active)
- GI50 (MDA-N): 0.0256 µM (active)
- GI50 (BT-549): 0.0189 µM (active)

Structure (SMILES): COc1ccc(C2COc3cc(OC(C)=O)c(OC(C)=O)cc3C2)cc1 (stereo unspecified)
- GI50 (DMS-114): 5.65 µM (inactive)
- GI50 (M19-MEL): 14.2 µM (inactive)

Structure (SMILES): CCOC(=O)c1ccc(N(CCOS(C)(=O)=O)CCOS(C)(=O)=O)cc1
- GI50 (MDA-MB-231): 91.2 µM (inactive)
- GI50 (MDA-N): 45.6 µM (inactive)
- GI50 (T47D): 43 µM (inactive)
- GI50 (BT-549): 40.6 µM (inactive)
- GI50 (DU-145): 21.8 µM (inactive)

Structure (SMILES): CN1COCN/C1=N/C#N
- GI50 (DMS-114): > 100 µM (inactive)
- GI50 (RXF 631): > 100 µM (inactive)
- GI50 (M19-MEL): > 100 µM (inactive)
